The text below walks through data of patent US12139520B2 (priority 2020, dated 2024).

Numbered stars: 1 amine (or outer) side, 2 acyl side, 3 side chain; on linkers, the order of the positions; unused ones are H or OH. Bridge positions count the residues as written; N and C are the ends. Square brackets hold non-standard residues; d marks the D form. Peptide text beside a SMILES is read from it. * marks the point of attachment. C20 diacid = O=C(O)CCCCCCCCCCCCCCCCCCC(=O)*; γGlu = O=C(O)[C@H](CCC(=O)[*:2])N[*:1]; Hyp = O=C(O)[C@@H]1C[C@@H](O)CN1

As a reminder, the EC50 is the concentration at which the effect is half-maximal.

The test addresses T1, hAMY3 receptor (Homo sapiens, UniProt O60896+P30988).
T1 sequence (P30988 25-474): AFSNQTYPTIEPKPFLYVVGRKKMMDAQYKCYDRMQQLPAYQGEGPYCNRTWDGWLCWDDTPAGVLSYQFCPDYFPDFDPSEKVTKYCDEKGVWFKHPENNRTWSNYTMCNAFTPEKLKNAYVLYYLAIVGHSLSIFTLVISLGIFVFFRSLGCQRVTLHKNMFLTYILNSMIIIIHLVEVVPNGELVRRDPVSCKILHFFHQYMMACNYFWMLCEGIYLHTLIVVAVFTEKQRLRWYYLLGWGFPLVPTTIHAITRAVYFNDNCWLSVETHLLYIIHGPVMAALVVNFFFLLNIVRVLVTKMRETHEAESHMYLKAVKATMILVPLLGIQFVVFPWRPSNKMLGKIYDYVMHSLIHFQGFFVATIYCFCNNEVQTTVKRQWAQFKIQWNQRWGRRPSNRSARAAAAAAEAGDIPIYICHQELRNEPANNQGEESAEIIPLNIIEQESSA
T1 sequence (O60896 24-148 partner): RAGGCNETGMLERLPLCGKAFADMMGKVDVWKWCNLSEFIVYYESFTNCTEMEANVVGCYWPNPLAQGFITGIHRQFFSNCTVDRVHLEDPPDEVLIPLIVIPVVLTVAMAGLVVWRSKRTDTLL
Kind of test: cAMP assay for in vitro receptor activation, hAMY3-R. The class given is cell-based. The settings on record: cAMP assay, hAMY3 receptor; read-out: hAMY3R EC50. The procedure: General Protocols for cAMP Assays for Measuring In Vitro Receptor Activation
Cells stably overexpressing the hAMY3 receptor were obtained from Ogeda (now Astellas Pharma), sub-cloned and a monoclonal cell-line with an appropriate assay-window was expanded, aliquoted and frozen.
An aliquot was thawed and plated in DPBS with 0.05% casein and 0.5 mM IBMX as 2000 cells/well in a 384-well format. The cells were then immediately stimulated for 30 min at room temperature with graded doses of test compound using human amylin (Bachem, cat no. H-7905) as a positive control. cAMP accumulation was measured using a Cisbio assay for Gs coupled receptors (cat. no. 62AM4PEC), where the assay reagents were added as per the manufacturer's instructions and time-resolved fluorescence energy transfer recorded after one hour.
A general note: Cyclic AMP is a second messenger, typically raised through Gs and lowered through Gi signalling.
`CC(C)C[C@H](NC(=O)[C@H](CCCNC(=N)N)NC(=O)[C@H](CCC(N)=O)NC(=O)[C@@H](NC(=O)[C@@H](NC(=O)[C@@H]1CSSC[C@H](NC(=O)CN)C(=O)N[C@@H](CCCNC(=N)N)C(=O)N[C@@H](Cc2ccccc2)C(=O)NCC(=O)N[C@@H]([C@@H](C)O)C(=O)N1)[C@@H](C)O)C(C)C)C(=O)N[C@@H](C)C(=O)N[C@@H](Cc1c[nH]cn1)C(=O)N[C@@H](Cc1ccccc1)C(=O)N[C@@H](CC(C)C)C(=O)N[C@@H](Cc1ccc(O)cc1)C(=O)N[C@@H](CCC(N)=O)C(=O)N[C@@H](Cc1ccccc1)C(=O)N[C@H](C(=O)N[C@@H](CC(=O)O)C(=O)N[C@@H](CCCCN)C(=O)N[C@@H](CC(=O)O)C(=O)N[C@@H](CCCCN)C(=O)N[C@@H](CC(=O)O)C(=O)N[C@@H](CC(N)=O)C(=O)N[C@H](C(=O)N[C@@H](C)C(=O)N1CCC[C@H]1C(=O)N[C@@H](CCCNC(=N)N)C(=O)N[C@H](C(=O)N[C@@H](CCCCN)C(=O)N[C@H](C(=O)NCC(=O)N1CCC[C@H]1C(=O)N[C@@H](CCC(N)=O)C(=O)NCC(=O)N[C@@H](Cc1ccc(O)cc1)C(N)=O)C(C)C)[C@@H](C)O)C(C)C)[C@@H](C)O` [compound 369] (H-GCRFGTCTVQRLAHFLYQFTDKDKDNVAPRTKVGPQGY-NH2; disulfide 2-7; N-terminus assumed): the EC50 worked out at 0.017 nM.

Take `CC[C@H](C)[C@H](NC(=O)[C@H](CCC(N)=O)NC(=O)[C@H](Cc1c[nH]cn1)NC(=O)[C@H](C)NC(=O)[C@H](CC(C)C)NC(=O)[C@H](CCCNC(=N)N)NC(=O)[C@H](CCC(N)=O)NC(=O)[C@@H](NC(=O)[C@@H](NC(=O)[C@@H]1CSSC[C@H](NC(=O)CN)C(=O)N[C@@H](CCCNC(=N)N)C(=O)N[C@@H](Cc2ccccc2)C(=O)NCC(=O)N[C@@H]([C@@H](C)O)C(=O)N1)[C@@H](C)O)C(C)C)C(=O)N[C@@H](Cc1ccc(O)cc1)C(=O)N[C@@H](CCC(N)=O)C(=O)N[C@@H](Cc1ccccc1)C(=O)N[C@H](C(=O)N[C@@H](CC(=O)O)C(=O)N[C@@H](CCCCN)C(=O)N[C@@H](CC(=O)O)C(=O)N[C@@H](CCCCN)C(=O)N[C@@H](CC(=O)O)C(=O)N[C@@H](CC(N)=O)C(=O)N[C@H](C(=O)N[C@@H](C)C(=O)N1CCC[C@H]1C(=O)N[C@@H](CCCNC(=N)N)C(=O)N[C@H](C(=O)N[C@@H](CCCCN)C(=O)N[C@H](C(=O)N[C@@H](CO)C(=O)N1CCC[C@H]1C(=O)N[C@@H](CC(N)=O)C(=O)NCC(=O)N[C@@H](Cc1ccc(O)cc1)C(N)=O)[C@@H](C)CC)[C@@H](C)O)C(C)C)[C@@H](C)O` [compound 371] (H-GCRFGTCTVQRLAHQIYQFTDKDKDNVAPRTKISPNGY-NH2; disulfide 2-7; N-terminus assumed): the EC50 amounted to 0.019 nM.

For the molecule `CC[C@H](C)[C@H](NC(=O)[C@H](CCC(N)=O)NC(=O)[C@H](Cc1c[nH]cn1)NC(=O)[C@H](C)NC(=O)[C@H](CC(C)C)NC(=O)[C@H](CCCNC(=N)N)NC(=O)[C@H](C)NC(=O)[C@@H](NC(=O)[C@@H](NC(=O)[C@@H]1CSSC[C@H](NC(=O)[C@H](CCCCN)NC(=O)CC[C@H](NC(=O)CCCCCCCCCCCCCCCCCCC(=O)O)C(=O)O)C(=O)N[C@@H](CC(N)=O)C(=O)N[C@@H]([C@@H](C)O)C(=O)N[C@@H](C)C(=O)N[C@@H]([C@@H](C)O)C(=O)N1)[C@@H](C)O)C(C)C)C(=O)N[C@@H](C)C(=O)N[C@@H](CCC(N)=O)C(=O)N[C@@H](Cc1ccccc1)C(=O)N[C@H](C(=O)N[C@@H](CC(=O)O)C(=O)N[C@@H](CCCCN)C(=O)N[C@@H](CC(=O)O)C(=O)N[C@@H](CCCCN)C(=O)N[C@@H](CC(=O)O)C(=O)N[C@@H](CC(N)=O)C(=O)N[C@H](C(=O)N[C@@H](C)C(=O)N1CCC[C@H]1C(=O)N1CCC[C@H]1C(=O)N[C@H](C(=O)N[C@@H](CC(N)=O)C(=O)N[C@H](C(=O)NCC(=O)N[C@@H](CO)C(=O)N[C@@H](CC(N)=O)C(=O)NCC(=O)N1C[C@H](O)C[C@H]1C(N)=O)C(C)C)[C@@H](C)O)C(C)C)[C@@H](C)O` [compound 107] ({C20 diacid-γGlu}-KCNTATCTVARLAHQIAQFTDKDKDNVAPPTNVGSNG[Hyp]-NH2; disulfide 2-7), the EC50 came to 0.019 nM.
